Assay results published in publication PMC3675115, “Mycobacterium tuberculosis Rv3406 Is a Type II Alkyl Sulfatase Capable of Sulfate Scavenging” (PLoS ONE, 2013).
Counter-ions that a name gives are not always drawn.

Tests used:
AtsK = target: T1, AtsK (Pseudomonas putida, UniProt Q9WWU5); assay: NADH/LADH coupled assay, […] nm; type: biochemical; conditions: alpha-ketoglutarate, Fe(II), ascorbate; 1 and 10 mM substrate
T1 construct: not described in main text (supplement File S1)

Rv3406 = Rv3406 (Mycobacterium tuberculosis, UniProt P9WKZ1); assay: NADH/LADH coupled assay, […] nm; type: biochemical; conditions: co-substrate with 2-EHS, Fe(II), ascorbate, pH 7.5, 25 C

T1 sequence (Q9WWU5 whole entry): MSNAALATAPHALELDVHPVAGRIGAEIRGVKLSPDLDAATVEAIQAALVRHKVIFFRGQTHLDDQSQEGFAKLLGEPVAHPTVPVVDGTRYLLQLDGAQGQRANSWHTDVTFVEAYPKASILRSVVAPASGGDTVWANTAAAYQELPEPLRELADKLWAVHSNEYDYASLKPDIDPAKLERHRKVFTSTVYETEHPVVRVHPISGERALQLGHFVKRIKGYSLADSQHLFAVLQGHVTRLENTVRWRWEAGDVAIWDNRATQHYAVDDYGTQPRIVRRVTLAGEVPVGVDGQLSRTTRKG

## CCCCC(CC)COS(=O)(=O)O (centres unmarked) [2-ethylhexyl sulfate]
AtsK
  NADH/LADH coupled assay, 340 nm: we also tested AtsK and found 2-EHS was its preferred substrate as well

## O=C(O)CCC(=O)C(=O)O [α-ketoglutarate]
Rv3406
  NADH/LADH coupled assay, 340 nm: Rv3406’s activity on 2-EHS is dependent on the cosubstrate αKG
